# Laboratory results from publication PMC3549253, “Effect of repetitive lysine–tryptophan motifs on the bactericidal activity of antimicrobial peptides” (Amino Acids, 2012).
# Where two headings read alike, the source gives them in different places. Residues, ends and D or L forms follow the SMILES beside them. No end group written: not given here.
# Columns and labels:
# [1] = system: S. aureus CCARM 3126; experiment: microbe, parasite or virus in culture
# Description: (§1) Escherichia coli (KCTC 1682), Salmonella typhimurium (KCTC 1926), Pseudomonas aeruginosa (KCTC 1637), Staphylococcus aureus (KCTC 1621), Bacillus subtilis (KCTC 1918), and Listeria monocytogenes (KCTC 3710) were obtained from the Korean Collection for Type Cultures (KCTC). Drug-resistant E. coli strains (CCARM 1229 and CCARM 1238), S. typhimurium strains (CCARM 8007, CCARM 8009, and CCARM 8013), and S. aureus strains (CCARM 3089, CCARM 3090, CCARM 3108, CCARM 3114, and CCARM 3126) were from the Culture Collection of Antibiotic-Resistant Microbes (CCARM) at Seoul Women’s University, Korea.
# (§2) The antibacterial activities of the peptides against Gram-negative, Gram-positive and antibiotic-resistant bacterial strains were evaluated using the microbroth dilution method (Park et al. [2003]). Aliquots of culture medium containing bacterial suspensions in mid-logarithmic phase at a concentration of 2 × 10^5 colony forming units (CFU)/ml were added to each well of a multiwell plate containing peptide solution serially diluted 2× in 10 mM sodium phosphate buffer (pH 7.2) or phosphate-buffered saline (PBS, 1.5 mM KH2PO4, 2.7 mM KCl, 8.1 mM Na2HPO4, 150 mM NaCl, pH 7.2). Growth inhibition was evaluated by measuring the absorbance at 620 nm using a Versa-Max microplate Elisa Reader (Molecular Devices Co., Sunnyvale, CA, USA) after 24 h of incubation at 37° C.
# [2] = system: human red blood cells; experiment: Human red blood cell (hRBC) hemolysis; assay type: cell-based; conditions: for Hemolysis: 200 μM peptide in PBS pH 7.2, 4 % v/v hRBCs, 60 min at 37° C, absorbance 414 nm, 100 % = 0.1 % Triton X-100, triplicate; for MHC (minimal hemolytic concentration): minimal peptide concentration that produces 10 % hemolysis, hRBCs in PBS
# Protocol: Hemolytic activities of the peptides were assessed using heparinized hRBCs collected from healthy donors. Fresh hRBCs were washed three times by centrifugation at 800×g for 10 min in PBS (pH 7.2) and then resuspended in PBS. The peptides were then dissolved in PBS and added to 100 μl of stock hRBCs suspended in PBS (final RBC concentration, 4 % v/v), after which the samples were incubated with gentle agitation for 60 min at 37° C before centrifugation for 10 min at 800×g. Absorbance of the supernatants was recorded at 414 nm. In addition, control samples for zero hemolysis and 100 % hemolysis were incubated with PBS (A blank) or 0.1 % Triton X-100 (A triton), respectively. Melittin was used as a reference hemolytic peptide. Percent hemolysis was calculated according to the following equation: Each measurement was conducted in triplicate (Kim et al. [2011]).
# [3] = system: Staphylococcus aureus (KCTC 1621); experiment: microbe, parasite or virus in culture; assay type: cell-based; conditions: pH 7.2
# Description: as §1
# as §2, with “C. […] All MIC measurements were the average of 3–4 independent experiments.” for “C.”
# [4] = system: S. aureus CCARM 3114; experiment: microbe, parasite or virus in culture; assay type: cell-based, Staphylococcus aureus
# Description: as §1
# as §2, with “C. […] All MIC measurements were the average of 3–4 independent experiments.” for “C.”
# [5] = system: S. aureus CCARM 3090; experiment: microbe, parasite or virus in culture; assay type: cell-based, Staphylococcus aureus
# Description: as §1
# as §2, with “C. […] All MIC measurements were the average of 3–4 independent experiments.” for “C.”
# [6] = system: S. typhimurium CCARM 8007; experiment: microbe, parasite or virus in culture; assay type: cell-based, Salmonella typhimurium
# Description: as §1
# as §2, with “C. […] All MIC measurements were the average of 3–4 independent experiments.” for “C.”
# [7] = system: S. typhimurium CCARM 8009; experiment: microbe, parasite or virus in culture; assay type: cell-based, Salmonella typhimurium
# Description: as §1
# as §2, with “C. […] All MIC measurements were the average of 3–4 independent experiments.” for “C.”
# [8] = system: S. typhimurium CCARM 8013; experiment: microbe, parasite or virus in culture; assay type: cell-based, Salmonella typhimurium
# Description: as §1
# as §2, with “C. […] All MIC measurements were the average of 3–4 independent experiments.” for “C.”
# [9] = system: Listeria monocytogenes (KCTC 3710); assay type: cell-based; conditions: KCTC 3710, 24 h, pH 7.2
# Description: as §1
# as §2, with “C. […] All MIC measurements were the average of 3–4 independent experiments.” for “C.”
# [10] = system: Bacillus subtilis (KCTC 1918); assay type: cell-based; conditions: KCTC 1918, 24 h, pH 7.2
# Description: as §1
# as §2, with “C. […] All MIC measurements were the average of 3–4 independent experiments.” for “C.”
# [11] = system: S. aureus CCARM 3108; experiment: microbe, parasite or virus in culture; assay type: cell-based, Staphylococcus aureus
# Description: as §1
# as §2, with “C. […] All MIC measurements were the average of 3–4 independent experiments.” for “C.”
# [12] = system: S. aureus CCARM 3089; experiment: microbe, parasite or virus in culture; assay type: cell-based, Staphylococcus aureus
# Description: as §1
# as §2, with “C. […] All MIC measurements were the average of 3–4 independent experiments.” for “C.”
# [13] = system: E. coli CCARM 1238; experiment: microbe, parasite or virus in culture; assay type: cell-based, Escherichia coli
# Description: as §1
# as §2, with “C. […] All MIC measurements were the average of 3–4 independent experiments.” for “C.”
# [14] = system: E. coli CCARM 1229; experiment: microbe, parasite or virus in culture; assay type: cell-based, Escherichia coli
# Description: as §1
# as §2, with “C. […] All MIC measurements were the average of 3–4 independent experiments.” for “C.”
# [15] = system: Salmonella typhimurium (KCTC 1926); experiment: microbe, parasite or virus in culture; assay type: cell-based; conditions: pH 7.2
# Description: as §1
# as §2, with “C. […] All MIC measurements were the average of 3–4 independent experiments.” for “C.”
# [16] = system: Escherichia coli (KCTC 1682); experiment: microbe, parasite or virus in culture; assay type: cell-based; conditions: pH 7.2
# Description: as §1
# as §2, with “C. […] All MIC measurements were the average of 3–4 independent experiments.” for “C.”
# [17] = system: Pseudomonas aeruginosa (KCTC 1637); assay type: cell-based; conditions: KCTC 1637, 24 h, pH 7.2
# Description: as §1
# as §2, with “C. […] All MIC measurements were the average of 3–4 independent experiments.” for “C.”
# [18] = drug-resistant strain, 10 mM sodium phosphate buffer, pH 7.2, 2 × 10^5 CFU/ml, 24 h at 37° C, average of 3–4 independent experiments
# [19] = drug-resistant strain, 10 mM sodium phosphate buffer, pH 7.2, 2 × 10^5 CFU/ml, 24 h at 37° C, average of 3–4 independent experiments, read-out: MIC
# [20] = drug-resistant strain, PBS, pH 7.2 (number in parentheses), 2 × 10^5 CFU/ml, 24 h at 37° C, average of 3–4 independent experiments
# [21] = Salmonella enterica, drug-resistant strain, 10 mM sodium phosphate buffer, pH 7.2, 2 × 10^5 CFU/ml, 24 h at 37° C, average of 3–4 independent experiments, read-out: MIC
molecule,measurement,setting,value
"KWKWKWKWKW-NH2 [(KW)5, KWKWKWKWKW-NH2]",MIC,[1]; [18],25 µM
same,Hemolysis,[2],71%
same,MHC (minimal hemolytic concentration),[2],50 µM
same,MIC,"[3]; KCTC 1621, 24 h, read-out: MIC",25 µM
same,MIC,[4]; [19],25 µM
same,MIC,[5]; [19],25 µM
same,MIC,[6]; [19],25 µM
same,MIC,[7]; [19],25 µM
same,MIC,[8]; [19],25 µM
same,MIC,[9],3.12 (3.12) μM
same,MIC,[10],12.5 (12.5) μM
"KWKWKW-NH2 [(KW)3, KWKWKW-NH2]",MIC,[1]; [18],50 µM
same,MIC,[1]; [20],200 µM
same,MHC (minimal hemolytic concentration),[2],350 µM
"Cc1onc(-c2ccccc2)c1C(=O)N[C@@H]1C(=O)N2[C@@H]1SC(C)(C)[C@@H]2C(=O)O [Oxacillin, reference compound]",MIC,"[1]; Staphylococcus aureus, CCARM3126, 24 h, pH 7.2",> 200 µM
same,MIC,[1]; [20],>200 (>200) μM
same,MIC,"[3]; Staphylococcus aureus, KCTC1621, 10 mM sodium phosphate buffer, 2 × 10^5 CFU/ml, 24 h at 37° C, average of 3–4 independent experiments, read-out: MIC",12.5 µM
same,MIC,"[4]; Staphylococcus aureus, CCARM3114, drug-resistant strain, 10 mM sodium phosphate buffer, pH 7.2, 2 × 10^5 CFU/ml, 24 h at 37° C, average of 3–4 independent experiments, read-out: MIC",> 200 µM
same,MIC,[4]; [20],>200 (>200) μM
same,MIC,"[11]; Staphylococcus aureus, CCARM3108, drug-resistant strain, 10 mM sodium phosphate buffer, pH 7.2, 2 × 10^5 CFU/ml, 24 h at 37° C, average of 3–4 independent experiments, read-out: MIC",> 200 µM
same,MIC,[11]; [20],>200 (>200) μM
same,MIC,"[5]; Staphylococcus aureus, CCARM3090, drug-resistant strain, 10 mM sodium phosphate buffer, pH 7.2, 2 × 10^5 CFU/ml, 24 h at 37° C, average of 3–4 independent experiments, read-out: MIC",> 200 µM
same,MIC,[5]; [20],>200 (>200) μM
same,MIC,"[12]; Staphylococcus aureus, CCARM3089, drug-resistant strain, 10 mM sodium phosphate buffer, pH 7.2, 2 × 10^5 CFU/ml, 24 h at 37° C, average of 3–4 independent experiments, read-out: MIC",> 200 µM
same,MIC,[12]; [20],>200 (>200) μM
"CC1(C)S[C@@H]2[C@H](NC(=O)[C@H](N)c3ccccc3)C(=O)N2[C@H]1C(=O)O [Ampicillin, reference compound]",MIC,"[13]; Escherichia coli, CCARM1238, drug-resistant strain, 10 mM sodium phosphate buffer, pH 7.2, 2 × 10^5 CFU/ml, 24 h at 37° C, average of 3–4 independent experiments, read-out: MIC",> 200 µM
same,MIC,[13]; [20],>200 (>200) μM
same,MIC,"[14]; Escherichia coli, CCARM1229, drug-resistant strain, 10 mM sodium phosphate buffer, pH 7.2, 2 × 10^5 CFU/ml, 24 h at 37° C, average of 3–4 independent experiments, read-out: MIC",> 200 µM
same,MIC,[14]; [20],>200 (>200) μM
same,MIC,"[15]; Salmonella enterica, 10 mM sodium phosphate buffer, 2 × 10^5 CFU/ml, 24 h at 37° C, average of 3–4 independent experiments, read-out: MIC",25 µM
same,MIC,"[16]; Escherichia coli, KCTC1682, 24 h",50 µM
same,MIC,[6]; [21],> 200 µM
same,MIC,[6]; [20],>200 (>200) μM
same,MIC,[7]; [21],> 200 µM
same,MIC,[7]; [20],>200 (>200) μM
same,MIC,[8]; [21],> 200 µM
same,MIC,[8]; [20],>200 (>200) μM
"KWKWKWKW-NH2 [(KW)4, KWKWKWKW-NH2]",MIC,[1]; [18],12.5 (12.5) μM
same,MIC,[1]; [20],12.5 (12.5) μM
same,MIC,[13]; [18],12.5 (12.5) μM
same,MIC,[13]; [20],12.5 (12.5) μM
same,Hemolysis,[2],8%
same,MHC (minimal hemolytic concentration),[2],210 µM
same,MIC,"[15]; KCTC 1926, 24 h",1.56 (1.56) μM
same,MIC,[4]; [18],12.5 (12.5) μM
same,MIC,[4]; [20],12.5 (12.5) μM
same,MIC,[11]; [18],12.5 (12.5) μM
same,MIC,[11]; [20],12.5 (12.5) μM
same,MIC,[5]; [18],12.5 (12.5) μM
same,MIC,[5]; [20],12.5 (12.5) μM
same,MIC,[12]; [18],12.5 (12.5) μM
same,MIC,[12]; [20],12.5 (12.5) μM
same,MIC,[6]; [18],12.5 (12.5) μM
same,MIC,[6]; [20],12.5 (12.5) μM
same,MIC,[9],3.12 (3.12) μM
same,MIC,[17],3.12 (3.12) μM
"NCCCC[C@H](NC(=O)[C@H](Cc1c[nH]c2ccccc12)NC(=O)[C@@H](N)CCCCN)C(=O)N[C@@H](Cc1c[nH]c2ccccc12)C(N)=O [(KW)2, KWKW-NH2] (H-KWKW-NH2)",MIC,"[13]; CCARM 1238, 24 h, pH 7.2",>200 (>200) μM
same,MIC,"[14]; CCARM 1229, 24 h, pH 7.2",>200 (>200) μM
same,MHC (minimal hemolytic concentration),[2],550 µM
same,MIC,"[3]; KCTC 1621, 24 h",>200 (>200) μM
same,MIC,"[16]; KCTC 1682, 24 h",>200 (>200) μM
same,MIC,"[4]; CCARM 3114, 24 h, pH 7.2",>200 (>200) μM
same,MIC,"[11]; CCARM 3108, 24 h, pH 7.2",>200 (>200) μM
same,MIC,"[5]; CCARM 3090, 24 h, pH 7.2",>200 (>200) μM
same,MIC,"[12]; CCARM 3089, 24 h, pH 7.2",>200 (>200) μM
same,MIC,"[6]; CCARM 8007, 24 h, pH 7.2",>200 (>200) μM
same,MIC,"[7]; CCARM 8009, 24 h, pH 7.2",>200 (>200) μM
same,MIC,"[8]; CCARM 8013, 24 h, pH 7.2",>200 (>200) μM
same,MIC,[9],200 (>200) μM
same,MIC,[17],>200 (>200) μM
same,MIC,[10],>200 (>200) μM
